From US6368788B1 (priority 1987, dated 2002)
Marks after values point to notes of the source that are not given here.

Key:
[1] = tested on: Dengue virus; assay: Dengue Protocol B; set-up: species or system human; conditions: in vivo
Method: Sixty Dengue virus infected patients (60) were entered into the trial; 36 were treated with L-Glu-L-Trp and 24 were treated using conventional therapy (i.e., controls).

[2] = tested on: antibiotic-resistant Staphylococci; assay: Chronic skin diseases caused by antibiotic-resistant Staphylococci (Protocol A2); assay type: in vivo, human
[3] = Pelvic inflammatory diseases; assay type: in vivo, human
Method: Ninety-six female patients (96) were entered into a trial having a variety of different disorders, i.e., pelvic inflammatory diseases, cervicitis, vaginitis and various tubo-ovarian and adnexal abscesses. Forty-six patients (46) comprised the L-Glu-L-Trp treatment group, and 50 patients comprised a conventional treatment control group. L-Glu-L-Trp was administered daily im at a dose of 100 μg, or 1 μg/kg intranasally, on each of 5 consecutive days. Alternatively, 50 μg of L-Glu-L-Trp was injected intralymphatically on each of 5 consecutive days in conjunction with conventional therapy. […] Normalization of immune parameters was correlated with the observed clinical improvements.
Patients entered into Group 1 (aged 19-50) were separable into clinical subgroups as follows: Subgroup 1A, consisted of 18 patients having […] (body temperature 38-39° C.), and suppurative vaginal discharge after infected abortions performed outside hospitals (average age 24.4±4.2 years); Subgroup 1B, consisted of 16 patients with abdominal pains resulting from chronic nonspecific subfebrile (<38° C.) inflammatory disease of the fallopian tubes (average age 32.2±3.9 years; range of abortions in the patient population 2-8); and, Subgroup 1C consisted of 12 patients with inflammation of the fallopian tubes, (38% resulting from placement of an IUD in the uterus more than 4 years previously). […] Group 2 (control) was constituted of 50 patients (aged 18-44) presenting with analogous symptoms and diseases and the patients in this group were treated with traditional antibiotic therapy.
In all cases L-Glu-L-Trp was delivered im at a dose of 100 μg in 1 ml volume daily on each of five days.
Treatment A: Administered to patients in Group 1A: The course of L-Glu-L-Trp therapy was administered, remnants of fetal tissue were surgically removed, and an additional course of L-Glu-L-Trp therapy was administered.
Treatment B: Administered to patients in Group 1B: L-Glu-L-Trp therapy was administered immediately upon admission into the protocol.
Treatment C: Administered to patients in Group 1C: Infected uterine tissues were surgically removed, abdominal drainage was established, and L-Glu-L-Trp therapy was administered starting 2 days post-operatively.
Patients were evaluated by monitoring the following parameters before, during, and 5-7 days after therapy: i) clinical status of the patient (i.e., body temperature, abdominal pain, and physical examinations) and, ii) laboratory data (i.e., urinalysis, blood chemistry, and blood immunology). The following clinical chemistry values of the patients in Groups 1A, 1B, and 1C were all within the normal range before and after treatment: AST, ALT, creatinine, urea, glucose, protein, chloride, potassium, and sodium. […] Treatment with L-Glu-L-Trp reduced the latter serum markers, i.e., alkaline phosphatase fell to 62.71±5.67 ED/mL and bilirubin to 0.50±0.03 mg %.

[4] = Influenza symptoms and sinusitis (Protocol F); assay type: in vivo, human
Method: Summary Overview: Fifty-one patients (51) were treated daily for 3-10 days with either 100 μg L-Glu-L-Trp administered im, or 1 μg/kg administered intranasally. A control group of 24 similar patients remained untreated.

[5] = Chronic osteomyelitis; set-up: species or system human; conditions: in vivo
Method: L-Glu-L-Trp was administered to 176 patients with chronic osteomyelitis of various etiology and bone localizations. The control group consisted of 88 patients receiving conventional treatment. L-Glu-L-Trp was administered im as a single daily dosage of 100 μg, or intranasally at a dose of 1 μg/kg daily, over a period of 10 days.

[6] = tested on: Influenza A; conditions: Combined Therapy: Conventional + L-Glu-L-Trp
Method: A clinical trial was conducted in a group of 588 patients between the ages of 17-21 years all having a confirmed infection with Influenza A, (i.e., confirmation by either hemagglutination-inhibition or the presence of specific viral antigens).

[7] = tested on: peripheral blood lymphocytes; assay: Chernobyl Protocol F: L-Glu-L-Trp at 3 years post-radiation exposure; assay type: in vivo, human
Method: An increased incidence of cancer is one sequelae known to occur in subjects exposed to radiation, presumably because of decreased immune surveillance and elimination of tumor cells. […] An attempt to normalize immune parameters was attempted in 70 of the latter patients exposed 3 years previously to 0.2-0.5 Gy of radiation at Chernobyl. […] The subjects were treated with L-Glu-L-Trp in an attempt to alleviate the immune defects. The treatment course consisted of daily doses of 100 μg L-Glu-L-Trp administered im for 3-5 days. Sixty three subjects, similarly exposed to radiation in Chernobyl were used as untreated controls.

[8] = pooled Groups 1A-1C, After L-Glu-L-Trp Therapy

L-Glu-L-Trp
Clinical outcome [1]: reduction of fever, more rapid reduction of toxic symptoms | Clinical outcome ([2]; L-Glu-L-Trp then individualized antibiotic): complete recovery in all patients | Increase in antibiotic-sensitivity of the patients' Staphylococci ([2]; patients with secondary T-immunodeficiency): more than 100 fold | Alkaline phosphatase ([3]; after treatment): 62.71±5.67 ED/mL | B-lymphocytes, % of normal ([3]; after treatment): ~55% | Bilirubin ([3]; after treatment): 0.50±0.03 mg % | Lymphocytes, % of normal ([3]; after treatment): about 81% | T-lymphocytes, % of normal ([3]; after treatment): about 75% | Clinical outcome ([3]; in vivo): alleviated pain, reduced fever, and decreased the duration of the medical treatment | B-Lymphocytes: % of Normal Value [3, 8]: (55%) | B-Lymphocytes: % of PBL [3, 8]: 11.09 ± 0.87 % of PBL | B-Lymphocytes: No. [3, 8]: 0.27 ± 0.03* 10^9/L | Blastogenic Response: % Lym blast w/Con A [3, 8]: 68.70 ± 5.32% | Blastogenic Response: % Lym blast w/PHA [3, 8]: 37.22 ± 2.81 % | IgA [3, 8]: 2.61 ± 0.33 g/L | IgA % Normal Value [3, 8]: (137%) | IgG [3, 8]: 13.73 ± 0.51 g/L | IgG % Normal Value [3, 8]: (126%) | IgM [3, 8]: 2.64 ± 0.36 g/L | IgM % Normal Value [3, 8]: (176%) | Lymphocytes: % Normal Value [3, 8]: (81%) | Lymphocytes: % of PBL [3, 8]: 36.61 ± 1.32 % of PBL | Lymphocytes: No. [3, 8]: 2.26 ± 0.12* 10^9/L | Phagocytes: % PBL [3, 8]: 74.78 ± 2.35 % PBL | T-Lymphocytes: % of Lym [3, 8]: 71.57 ± 1.76 % of Lym | T-Lymphocytes: % of Normal Value [3, 8]: (75%) | T-Lymphocytes: No. [3, 8]: 1.67 ± 0.09* 10^9/L | Clinical outcome ([4]; in vivo): reduced nasal mucous swelling, normalization of breathing | Decrease of total duration of patient treatment ([4]; vs control group): up to 1.7 fold | Clinical outcome [5]: pronounced positive effect on clinical course | Increase in T-helper Cells Percentage [6]: 17% | Length of Required Therapy [6]: 7.1 ± 0.3 days | Pharyngitis manifestations [6]: 3.6 ± 0.3 days | Secondary (Pneumonia) Complications [6]: 4.0% | T-helper/T-suppressor Ratio [6]: 2.7 | Tracheitis manifestations [6]: 3.6 ± 0.3 days | B-Ig+, % ([7]; After L-Glu-L-Trp): 11.0 ± 0.3% | B-Ig+, abs ([7]; After L-Glu-L-Trp): 0.23 ± 0.04 10^9/L | B-IgA+, % ([7]; After L-Glu-L-Trp): 1.9 ± 0.3% | B-IgA+, abs ([7]; After L-Glu-L-Trp): 0.04 ± 0.002 10^9/L | B-IgG+, % ([7]; After L-Glu-L-Trp): 4.8 ± 0.5% | B-IgG+, abs ([7]; After L-Glu-L-Trp): 0.09 ± 0.007 10^9/L | B-IgM+, % ([7]; After L-Glu-L-Trp): 4.1 ± 0.6 % | B-IgM+, abs ([7]; After L-Glu-L-Trp): 0.12 ± 0.003** 10^9/L | CD2-DR+, % ([7]; After L-Glu-L-Trp): 32 ± 3 % | CD2-DR+, abs ([7]; After L-Glu-L-Trp): 0.66 ± 0.10** 10^9/L | CD3, % ([7]; After L-Glu-L-Trp): 59.2 ± 2.1 % | CD3, abs ([7]; After L-Glu-L-Trp): 1.21 ± 0.15 10^9/L | CD4, % ([7]; After L-Glu-L-Trp): 36.2 ± 1.7% | CD4, abs ([7]; After L-Glu-L-Trp): 0.74 ± 0.08 10^9/L | CD8, % ([7]; After L-Glu-L-Trp): 23.2 ± 2.1 % | CD8, abs ([7]; After L-Glu-L-Trp): 0.48 ± 0.07** 10^9/L | IgA ([7]; After L-Glu-L-Trp): 1.2 ± 0.4 g/L | IgG ([7]; After L-Glu-L-Trp): 10.9 ± 1.3 g/L | IgM ([7]; After L-Glu-L-Trp): 1.06 ± 0.06 g/L | LMI, % ([7]; After L-Glu-L-Trp): 75 ± 6 % | Leukocytes, abs ([7]; After L-Glu-L-Trp): 5.6 ± 0.4 10^9/L | Lymphocytes, abs ([7]; After L-Glu-L-Trp): 2.1 ± 0.3 10^9/L | T4/T8 ([7]; After L-Glu-L-Trp): 1.58 ± 0.04 | Cases with restoration of CD2+ counts ([7]; in vivo): 85% | Clinical outcome ([7]; in vivo): disappearance of symptoms associated with the asthenic syndrome
